Laboratory results as given in patent publication US20180265515A1 (Genentech, Inc., priority 2015, published 2018).

Assays:
[1] = target: T1, isolated recombinant JAK2 kinase domain (Homo sapiens, UniProt O60674); test: JAK2 enzyme assay (Caliper LabChip, Ki); format: biochemical; conditions: 25 μM ATP
T1 construct: The activity of the isolated recombinant JAK1 and JAK2 kinase domain was measured
In short: (§1)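 Caliper LabChip read-out: fraction of FAM-labeled JAK3-derived peptide converted to phosphopeptide by isolated JAK1/JAK2 kinase domain. Reaction 30 min, 22° C; stopped with EDTA, 50 mM final. Ki via Morrison tight-binding model, Ki=Ki,app/(1+[ATP]/Km,app).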

[2] = target: T2, isolated recombinant JAK1 kinase domain (Homo sapiens, UniProt P23458); test: JAK1 enzyme assay (Caliper LabChip, Ki); format: biochemical; conditions: recombinant JAK1 kinase domain, 25 μM ATP
T2 construct: The activity of the isolated recombinant JAK1 and JAK2 kinase domain was measured
T2 sequence (P23458 875-1153 limits assumed): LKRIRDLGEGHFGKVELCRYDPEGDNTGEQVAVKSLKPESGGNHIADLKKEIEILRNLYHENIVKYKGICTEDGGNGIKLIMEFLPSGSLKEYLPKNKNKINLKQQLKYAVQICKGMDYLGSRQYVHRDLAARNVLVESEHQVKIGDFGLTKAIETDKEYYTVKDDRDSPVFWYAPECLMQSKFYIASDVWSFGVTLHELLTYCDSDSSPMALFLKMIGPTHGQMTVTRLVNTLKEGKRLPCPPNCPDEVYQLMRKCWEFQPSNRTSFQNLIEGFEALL
In short: as §1

[3] = test system: JAK1-dependent STAT6 phosphorylation downstream of IL-13 stimulation in BEAS-2B human bronchial epithelial cells; test: JAK1 pathway assay in BEAS-2B cells (IL-13 stimulated STAT6 phosphorylation, MSD); format: cell-based; conditions: read-out: P-STAT6 BEAS2B + IL13 IC50
In short: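 BEAS-2B human bronchial epithelial cells, plated the day before in complete growth medium, were preincubated with compound for 1 hr at 37° C (0.2% DMSO final), then stimulated with IL-13 at its EC90 for 15 min. STAT6 phosphorylation in lysates was read by MSD; EC50 was taken as 50% inhibition versus DMSO control.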

T1 sequence (O60674 849-1124 limits assumed): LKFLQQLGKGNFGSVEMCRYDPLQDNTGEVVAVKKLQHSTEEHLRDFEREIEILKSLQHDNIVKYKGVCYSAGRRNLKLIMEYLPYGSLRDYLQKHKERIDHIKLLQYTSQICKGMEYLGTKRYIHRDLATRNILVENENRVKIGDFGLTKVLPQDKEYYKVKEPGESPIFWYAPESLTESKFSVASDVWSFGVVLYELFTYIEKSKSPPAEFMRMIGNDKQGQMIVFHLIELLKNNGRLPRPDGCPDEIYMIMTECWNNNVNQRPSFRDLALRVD

| Ki [1] | Ki [2] | SMILES | IC50 [3] |
| --- | --- | --- | --- |
| 0.14 nM | 0.25 nM | CC(C)Sc1ccc(OC(F)F)c(-c2nn(C)cc2NC(=O)c2cnn3cccnc23)c1 [Example 144, N-[3-[2-(difluoromethoxy)-5-(propan-2-ylsulfanyl)phenyl]-1-methyl-1H-pyrazol-4-yl]pyrazolo[1,5-a]pyrimidine-3-carboxamide] | 5.6 nM |
| 1.6 nM | 0.6 nM | CNC(=O)[C@@H]1CCCN1C1CCN(C(=O)Cn2cc(NC(=O)c3cnn4cccnc34)c(-c3cc(SC(C)C)ccc3OC(F)F)n2)CC1 [Example 145, N-[3-[2-(difluoromethoxy)-5-isopropylsulfanyl-phenyl]-1-[2-[4-[(2S)-2-(methylcarbamoyl)pyrrolidin-1-yl]-1-piperidyl]-2-oxo-ethyl]pyrazol-4-yl]pyrazolo[1,5-a]pyrimidine-3-carboxamide] | 100 nM |
| 0.72 nM | 0.37 nM | CC(C)Sc1ccc(OC(F)F)c(-c2nn(CC(=O)N3CCC(N4CCn5ccnc5C4)CC3)cc2NC(=O)c2cnn3cccnc23)c1 [Example 146, N-[3-[2-(difluoromethoxy)-5-isopropylsulfanyl-phenyl]-1-[2-[4-(6,8-dihydro-5H-imidazo[1,2-a]pyrazin-7-yl)-1-piperidyl]-2-oxo-ethyl]pyrazol-4-yl]pyrazolo[1,5-a]pyrimidine-3-carboxamide] | 170 nM |
| 1.8 nM | 0.73 nM | CC(C)Sc1ccc(OC(F)F)c(-c2nn(CC(=O)N3CCC(N(CCN4CCOCC4)C4COC4)CC3)cc2NC(=O)c2cnn3cccnc23)c1 [Example 147, N-[3-[2-(difluoromethoxy)-5-isopropylsulfanyl-phenyl]-1-[2-[4-[2-morpholinoethyl(oxetan-3-yl)amino]-1-piperidyl]-2-oxo-ethyl]pyrazol-4-yl]pyrazolo[1,5-a]pyrimidine-3-carboxamide] | 1000 nM |
| 0.24 nM | 0.4 nM | CC(C)Sc1ccc(OC(F)F)c(-c2nn(Cc3cn(C4CCN(C5COC5)CC4)nn3)cc2NC(=O)c2cnn3cccnc23)c1 [Example 148, N-[3-[2-(difluoromethoxy)-5-isopropylsulfanyl-phenyl]-1-[[1-[1-(oxetan-3-yl)-4-piperidyl]triazol-4-yl]methyl]pyrazol-4-yl]pyrazolo[1,5-a]pyrimidine-3-carboxamide] | 55 nM |
| 1.2 nM | 0.52 nM | CC(C)Sc1ccc(OC(F)F)c(-c2nn(CC(=O)N3CCC(N4CCO[C@H](CO)C4)CC3)cc2NC(=O)c2cnn3cccnc23)c1 [Example 149, N-[3-[2-(difluoromethoxy)-5-isopropylsulfanyl-phenyl]-1-[2-[4-[(2S)-2-(hydroxymethyl)morpholin-4-yl]-1-piperidyl]-2-oxo-ethyl]pyrazol-4-yl]pyrazolo[1,5-a]pyrimidine-3-carboxamide] | 50 nM |
| 1.4 nM | 0.6 nM | COC(=O)N1CCN(CC2CCN(C(=O)Cn3cc(NC(=O)c4cnn5cccnc45)c(-c4cc(SC(C)C)ccc4OC(F)F)n3)CC2)CC1 [Example 150, methyl 4-[[1-(2-[3-[2-(difluoromethoxy)-5-(propan-2-ylsulfanyl)phenyl]-4-[pyrazolo[1,5-a]pyrimidine-3-amido]-1H-pyrazol-1-yl]acetyl)piperidin-4-yl]methyl]piperazine-1-carboxylate] | 15 nM |
| 2.3 nM | 0.54 nM | CC(C)Sc1ccc(OC(F)F)c(-c2nn(CC(=O)N3CCC(C(=O)N4CCNCC4)CC3)cc2NC(=O)c2cnn3cccnc23)c1 [Example 151, N-[3-[2-(difluoromethoxy)-5-isopropylsulfanyl-phenyl]-1-[2-oxo-2-[4-(piperazine-1-carbonyl)-1-piperidyl]ethyl]pyrazol-4-yl]pyrazolo[1,5-a]pyrimidine-3-carboxamide] | 960 nM |
| 1.3 nM | 0.52 nM | CC(C)Sc1ccc(OC(F)F)c(-c2nn(CC(=O)N3CCC(N4CCN(CC(=O)N5CCOCC5)CC4)CC3)cc2NC(=O)c2cnn3cccnc23)c1 [Example 152, N-[3-[2-(difluoromethoxy)-5-isopropylsulfanyl-phenyl]-1-[2-[4-[4-(2-morpholino-2-oxo-ethyl)piperazin-1-yl]-1-piperidyl]-2-oxo-ethyl]pyrazol-4-yl]pyrazolo[1,5-a]pyrimidine-3-carboxamide] | 290 nM |
| 0.91 nM | 0.41 nM | CC(C)Sc1ccc(OC(F)F)c(-c2nn(CC(=O)N3CCC(N4CCOC[C@H]4CO)CC3)cc2NC(=O)c2cnn3cccnc23)c1 [Example 153] | 110 nM |
| 1.5 nM | 0.42 nM | CC(C)Sc1ccc(OC(F)F)c(-c2nn(CC(=O)N3CCC(N(C)CC(=O)N4CCOCC4)CC3)cc2NC(=O)c2cnn3cccnc23)c1 [Example 154, N-[3-[2-(difluoromethoxy)-5-isopropylsulfanyl-phenyl]-1-[2-[4-[methyl-(2-morpholino-2-oxo-ethyl)amino]-1-piperidyl]-2-oxo-ethyl]pyrazol-4-yl]pyrazolo[1,5-a]pyrimidine-3-carboxamide] | 81 nM |
| 0.99 nM | 0.31 nM | CC(C)Sc1ccc(OC(F)F)c(-c2nn(CC(=O)N3CCC(N4CCO[C@@H](CO)C4)CC3)cc2NC(=O)c2cnn3cccnc23)c1 [Example 155, N-[3-[2-(difluoromethoxy)-5-isopropylsulfanyl-phenyl]-1-[2-[4-[(2R)-2-(hydroxymethyl)morpholin-4-yl]-1-piperidyl]-2-oxo-ethyl]pyrazol-4-yl]pyrazolo[1,5-a]pyrimidine-3-carboxamide] | 48 nM |
| 0.29 nM | 0.36 nM | CC(C)Sc1ccc(OC(F)F)c(-c2nn(Cc3cn(C4CCN(C5CCOC5)CC4)nn3)cc2NC(=O)c2cnn3cccnc23)c1 (stereo not drawn) [Example 156, N-[3-[2-(difluoromethoxy)-5-(propan-2-ylsulfanyl)phenyl]-1-([1-[1-(oxolan-3-yl)piperidin-4-yl]-1H-1,2,3-triazol-4-yl]methyl)-1H-pyrazol-4-yl]pyrazolo[1,5-a]pyrimidine-3-carboxamide] | 21 nM |
| 0.77 nM | 0.27 nM | CC(=O)N1CCN(CC2CCN(C(=O)Cn3cc(NC(=O)c4cnn5cccnc45)c(-c4cc(SC(C)C)ccc4OC(F)F)n3)CC2)CC1 [Example 157, N-[1-[2-[4-[(4-acetylpiperazin-1-yl)methyl]-1-piperidyl]-2-oxo-ethyl]-3-[2-(difluoromethoxy)-5-isopropylsulfanyl-phenyl]pyrazol-4-yl]pyrazolo[1,5-a]pyrimidine-3-carboxamide] | 47 nM |
| 1 nM | 0.59 nM | CC(C)Sc1ccc(OC(F)F)c(-c2nn(CC(=O)N3CCC(N4CCOC[C@@H]4CO)CC3)cc2NC(=O)c2cnn3cccnc23)c1 [Example 158, N-[3-[2-(difluoromethoxy)-5-isopropylsulfanyl-phenyl]-1-[2-[4-[(3S)-3-(hydroxymethyl)morpholin-4-yl]-1-piperidyl]-2-oxo-ethyl]pyrazol-4-yl]pyrazolo[1,5-a]pyrimidine-3-carboxamide] | 91 nM |
| 0.097 nM | 0.16 nM | Cn1cc(NC(=O)c2cnn3cccnc23)c(-c2cc(SC(CF)CF)ccc2OC(F)F)n1 [Example 159, N-[3-[2-(difluoromethoxy)-5-[(1,3-difluoropropan-2-yl)sulfanyl]phenyl]-1-methyl-1H-pyrazol-4-yl]pyrazolo[1,5-a]pyrimidine-3-carboxamide] | 3.9 nM |
| 0.056 nM | 0.098 nM | O=C(Nc1c[nH]nc1-c1cc(SC2CC2)ccc1OC(F)F)c1cnn2cccnc12 [Example 160, N-[3-[5-(cyclopropylsulfanyl)-2-(difluoromethoxy)phenyl]-1H-pyrazol-4-yl]pyrazolo[1,5-a]pyrimidine-3-carboxamide] | 7.3 nM |
| 0.64 nM | 0.3 nM | O=C(Nc1cn(CC(=O)N2CCC(N3CCOCC3)CC2)nc1-c1cc(SC2CC2)ccc1OC(F)F)c1cnn2cccnc12 [Example 161, N-[3-[5-cyclopropylsulfanyl-2-(difluoromethoxy)phenyl]-1-[2-(4-morpholino-1-piperidyl)-2-oxo-ethyl]pyrazol-4-yl]pyrazolo[1,5-a]pyrimidine-3-carboxamide] | 16 nM |
| 0.98 nM | 0.42 nM | O=C(Nc1cn(CC(=O)N2CCC(CN3CCOCC3)CC2)nc1-c1cc(SC2CC2)ccc1OC(F)F)c1cnn2cccnc12 [Example 162, N-[3-[5-cyclopropylsulfanyl-2-(difluoromethoxy)phenyl]-1-[2-[4-(morpholinomethyl)-1-piperidyl]-2-oxo-ethyl]pyrazol-4-yl]pyrazolo[1,5-a]pyrimidine-3-carboxamide] | 15 nM |
| 0.94 nM | 0.43 nM | O=C(Nc1cn(CC(=O)N2CCN(CCN3CCOCC3)CC2)nc1-c1cc(SC2CC2)ccc1OC(F)F)c1cnn2cccnc12 [Example 163, N-[3-[5-(cyclopropylsulfanyl)-2-(difluoromethoxy)phenyl]-1-(2-[4-[2-(morpholin-4-yl)ethyl]piperazin-1-yl]-2-oxoethyl)-1H-pyrazol-4-yl]pyrazolo[1,5-a]pyrimidine-3-carboxamide] | 24 nM |
